Results from patent publication US20240052053A1, “ENHANCEMENT OF ANTIBODY-DEPENDENT CELL-MEDIATED CYTOTOXICITY (ADCC)” (IO Biotech ApS, priority 2017, published 2024).
Entries after “also recorded” stand apart in the source; their conditions may differ.

System: U266 myeloma cells
Assay: 51Cr-release cytotoxic assay with PD-L1-specific CTLs
Format: cell-based, human
Details: U266 cells pretreated with IFN-γ
Description: The cytotoxicity assay was performed as in Example 1. Briefly, HLA-A2-positive CTLs that were specific to PD-L1 were thawed, rested over-night and used as effector cells against 51 Cr-labeled HLA-A2-positive U266 myeloma cells in different effector to target (E:T)-cell ratios.

IFN-γ: Interferon gamma, a major inducer of PD-L1 expression, used to pretreat U266 cells
killing of U266 cells by PD-L1 specific CTLs after pretreatment: more susceptible to being killed; also recorded: tendency towards increased killing
